Earlier results, collected in publication PMC4552746, “Conformational Properties of Seven Toac-Labeled Angiotensin I Analogues Correlate with Their Muscle Contraction Activity and Their Ability to Act as ACE Substrates” (PLoS ONE, 2015).

System: thoracic rabbit aorta strips
Set-up: method as in earlier work
Conditions: ref 48 (Cordopatis and Theodoropoulos)

Substance: [1-Aib]-angiotensin II [Aib^1-AngII]
- Potency, in words: displays high potency
